The text below walks through data of ChEMBL document CHEMBL1933061, “Discovery of a novel class of aldol-derived 1,2,3-triazoles: potent and selective inhibitors of human cytochrome P450 19A1 (aromatase)” (Bioorg Med Chem Lett, 2012).

Molecules are shown by their SMILES.

The target in one series is T1, Cytochrome P450 1A1 (Homo sapiens, UniProt P04798).
T1 sequence (P04798 whole entry): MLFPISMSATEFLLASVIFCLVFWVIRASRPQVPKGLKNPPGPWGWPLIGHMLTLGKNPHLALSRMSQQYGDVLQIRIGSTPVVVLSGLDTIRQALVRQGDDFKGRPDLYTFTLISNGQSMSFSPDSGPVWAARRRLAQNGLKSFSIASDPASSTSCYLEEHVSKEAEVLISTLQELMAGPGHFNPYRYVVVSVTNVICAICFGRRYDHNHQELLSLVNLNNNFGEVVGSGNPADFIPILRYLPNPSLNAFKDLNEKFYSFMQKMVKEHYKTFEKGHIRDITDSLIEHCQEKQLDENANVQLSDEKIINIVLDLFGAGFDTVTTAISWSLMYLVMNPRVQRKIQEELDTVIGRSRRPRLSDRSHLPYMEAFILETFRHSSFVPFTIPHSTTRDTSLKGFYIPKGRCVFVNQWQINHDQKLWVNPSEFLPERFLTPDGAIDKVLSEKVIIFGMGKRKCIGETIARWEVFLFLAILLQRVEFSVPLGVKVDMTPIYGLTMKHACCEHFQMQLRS
The series is described as follows: Inhibition of CYP1A1. The series is classed as ADME.

The target in series [1] is T2, Aromatase (Homo sapiens, UniProt P11511).
T2 sequence (P11511 whole entry): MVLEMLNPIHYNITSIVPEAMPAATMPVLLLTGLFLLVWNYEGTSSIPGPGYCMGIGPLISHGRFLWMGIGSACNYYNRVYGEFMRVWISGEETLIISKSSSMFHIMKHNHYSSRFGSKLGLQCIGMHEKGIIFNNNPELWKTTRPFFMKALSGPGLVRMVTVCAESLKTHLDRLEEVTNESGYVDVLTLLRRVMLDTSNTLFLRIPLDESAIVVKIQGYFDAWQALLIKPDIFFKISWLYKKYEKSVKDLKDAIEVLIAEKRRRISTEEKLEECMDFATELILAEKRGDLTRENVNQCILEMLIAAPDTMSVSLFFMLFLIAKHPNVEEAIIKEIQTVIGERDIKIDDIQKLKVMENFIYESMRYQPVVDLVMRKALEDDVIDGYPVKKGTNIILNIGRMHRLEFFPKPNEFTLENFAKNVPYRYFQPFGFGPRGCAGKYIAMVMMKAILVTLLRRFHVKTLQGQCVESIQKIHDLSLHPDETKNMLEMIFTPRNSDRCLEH
Description: Inhibition of human recombinant aromatase assessed as conversion of O-dibenzylfluorescein benzyl ester substrate to fluorescein byproduct by fluorometric assay. Particulars: for inhibition (INH): human; call rule not given here.

The next series has as its target Cytochrome P450 3A4 (Homo sapiens, UniProt P08684). The series is described as follows: Inhibition of CYP3A4 at 10 uM. The series is classed as ADME.
For series [2], the target named is T2, Aromatase. The series is described as follows: Inhibition of human recombinant aromatase assessed as conversion of O-dibenzylfluorescein benzyl ester substrate to fluorescein byproduct at 10 uM by fluorometric assay.
Another series addresses Cytochrome P450 2D6 (Homo sapiens, UniProt P10635). The series is described as follows: Inhibition of CYP2D6. It is filed as ADME.

Cytochrome P450 3A4, sequence (P08684 whole entry): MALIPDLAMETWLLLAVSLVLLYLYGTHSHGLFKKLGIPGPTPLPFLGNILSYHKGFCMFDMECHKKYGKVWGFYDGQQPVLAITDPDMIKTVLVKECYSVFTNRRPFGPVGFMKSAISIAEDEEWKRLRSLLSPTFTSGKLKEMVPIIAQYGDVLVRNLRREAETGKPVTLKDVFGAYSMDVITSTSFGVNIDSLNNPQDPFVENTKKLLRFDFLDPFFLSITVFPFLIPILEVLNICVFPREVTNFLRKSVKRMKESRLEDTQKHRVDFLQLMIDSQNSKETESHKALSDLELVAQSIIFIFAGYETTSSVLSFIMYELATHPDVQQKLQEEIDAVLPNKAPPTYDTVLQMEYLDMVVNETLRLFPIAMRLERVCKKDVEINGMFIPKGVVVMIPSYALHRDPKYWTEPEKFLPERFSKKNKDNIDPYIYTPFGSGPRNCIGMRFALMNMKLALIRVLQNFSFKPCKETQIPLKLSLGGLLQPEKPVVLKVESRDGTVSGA
Cytochrome P450 2D6, sequence (P10635 whole entry): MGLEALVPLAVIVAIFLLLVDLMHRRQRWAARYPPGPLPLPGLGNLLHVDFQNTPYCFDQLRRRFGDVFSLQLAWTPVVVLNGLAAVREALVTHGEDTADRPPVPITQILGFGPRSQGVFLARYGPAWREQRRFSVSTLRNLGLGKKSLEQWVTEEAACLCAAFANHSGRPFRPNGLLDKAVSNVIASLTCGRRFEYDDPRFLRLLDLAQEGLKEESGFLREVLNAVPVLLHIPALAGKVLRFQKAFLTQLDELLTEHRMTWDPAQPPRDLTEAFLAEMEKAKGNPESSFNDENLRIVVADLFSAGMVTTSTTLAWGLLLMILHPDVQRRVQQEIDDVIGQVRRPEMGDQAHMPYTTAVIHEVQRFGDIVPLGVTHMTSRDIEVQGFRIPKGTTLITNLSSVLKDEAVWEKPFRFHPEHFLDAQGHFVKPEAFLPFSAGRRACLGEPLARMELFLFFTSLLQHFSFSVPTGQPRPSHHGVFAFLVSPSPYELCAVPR

What is called Ki is the dissociation constant of the complex between target and ligand, obtained from inhibition or displacement. On to `O=C(c1ccccc1)C(Cn1ccnn1)c1ccccc1` (stereo unspecified), for which the Ki at Cytochrome P450 1A1 was 5.37 µM; on Aromatase [1], 1 µM. The “inhibition (INH)” value against Cytochrome P450 3A4 is recorded as “Not Active”.
As for `COCO[C@@H](c1ccccc1)[C@@H](CN=[N+]=[N-])c1ccccc1` (relative stereo), the “inhibition (INH)” value on Aromatase [1] and on Aromatase [2] was “Not Active” throughout.
In the case of `COCO[C@@H](c1ccccc1)[C@@H](Cn1cc([Si](C)(C)C)nn1)c1ccccc1` (relative stereo), the “inhibition (INH)” value at Aromatase [1] and on Aromatase [2] was “Not Active” throughout.
With `COCO[C@@H](c1ccccc1)[C@@H](Cn1ccnn1)c1ccccc1` (relative stereo), the Ki at Aromatase [1] is 0.79 µM; on Cytochrome P450 2D6, 1120 µM.
Turning to `O[C@@H](c1ccccc1)[C@@H](Cn1ccnn1)c1ccccc1` (relative stereo), the “inhibition (INH)” value on Aromatase [2] is “Not Active”.
Consider `O=C(O[C@@H](c1ccccc1)[C@@H](Cn1ccnn1)c1ccccc1)c1ccccc1` (relative stereo), for which the figures for the Ki at Cytochrome P450 1A1 and on Aromatase [1] were 30.9 µM and 0.1 µM, respectively. Besides, the “inhibition (INH)” value against Cytochrome P450 3A4 was “Not Active”.
Take `CC(=O)O[C@@H](c1ccccc1)[C@@H](Cn1ccnn1)c1ccccc1` (relative stereo): the Ki on Aromatase [1] was found to be 0.06 µM. Also, the “inhibition (INH)” value against Cytochrome P450 3A4 was “Not Active”.
`COCO[C@@H](c1ccccc1)[C@@H](CN1CCOCC1)c1ccccc1` (relative stereo): the “inhibition (INH)” value at Aromatase [2] is on record as “Not Active”.
With `COCO[C@@H](c1ccccc1)[C@@H](CN)c1ccccc1` (relative stereo), the “inhibition (INH)” value on Aromatase [2] is recorded as “Not Active”.
The same measure, in the same setting: with `COCO[C@H](c1ccccc1)[C@@H](CN=[N+]=[N-])c1ccccc1` (relative stereo) the entry was “Not Active”; with `COCO[C@H](c1ccccc1)[C@@H](Cn1cc([Si](C)(C)C)nn1)c1ccccc1` (relative stereo), “Not Active”.
For the molecule `COCO[C@H](c1ccccc1)[C@@H](Cn1ccnn1)c1ccccc1` (relative stereo), the Ki on Aromatase [1] was determined as 0.08 µM. For the same molecule, at Cytochrome P450 3A4, the “inhibition (INH)” value is “Not Active”.
Consider `O[C@H](c1ccccc1)[C@@H](Cn1ccnn1)c1ccccc1` (relative stereo), for which the values for the Ki on Aromatase [1] and on Cytochrome P450 2D6 were 0.05 µM and 708 µM, respectively. For the same molecule, the “inhibition (INH)” value on Cytochrome P450 3A4 was “Not Active”.
For `CC(=O)O[C@H](c1ccccc1)[C@@H](Cn1ccnn1)c1ccccc1` (relative stereo), the inhibition constant (Ki) at Aromatase [1] amounted to 0.25 µM. The “inhibition (INH)” value at Cytochrome P450 3A4 is on record as “Not Active”.
